Test [1] is described as follows: ABTS radical scavenging bioassay. In kind it is biochemical. The following applies: for radical scavenging activity, ABTS assay: compound 1 mM in phosphate-buffered methanol, 734 nm; for IC50: concentration decreasing absorbance by 50%. From the text: The antioxidant activity was estimated by ABTS and DPPH bioassays, according to the reported literature method. More details are in the Supplementary Materials.
Recently, OSe compounds were thoroughly used as redox modulators to control many complicated diseases (e.g., cancer and neurodegenerative diseases). The DPPH and ABTS bioassays were extensively used as rapid tools for estimating the antioxidant potency of OSe compounds [50, 51]. Ascorbic acid was used as a standard control, and the antioxidant potency was measured by the ability of the compounds to decolorize the characteristic colors of the ABTS^. and DPPH^. radicals by following the colorimetric decline in absorbance at 734 and 517 nm, respectively (Figure 2).
Figure 2 Evaluation of the antioxidant properties of the OSe compounds employing the ABTS and DPPH assays. All measurements are mean ± SD. In the DPPH assay: absorbance was read after 0.5 h of mixing […] of DPPH with […] of OSe compounds (1 mM, MeOH) at 517 nm. In the ABTS assay: […] of each OSe compound (1 mM, phosphate-buffered methanol) was mixed with the ABTS solution (60 mM), and absorbance was monitored at 734 nm.
The antioxidant activity of the investigated compounds was assessed using 2,2’-az-ino-bis(3-ethylbenzothiazoline-6-sulphonic acid (ABTS) method. The radical cation derived from ABTS was prepared by the reaction of 60 mM ABTS solution with 0.3 M manganese dioxide solution in 0.1M phosphate buffer, pH 7. Then, the mixture was shaken, centrifuged, filtered, and the absorbance (Acontrol) of the resulting green-blue solu-tion (ABTS radical solution) was measured at wavelength 734 nm. Then, […] of 1 mg/ml test compound in phosphate-buffered methanol was added. The absorbance (Atest) was measured. The reduction in color intensity was expressed as % inhibition. The % inhibi-tion for each compound is calculated from the following equation
Inhibition% = (Acontrol-Asample)/(Acontrol)*100
Ascorbic acid (vitamin C) was used as a standard antioxidant (positive control). A blank sample was run without ABTS and using MeOH/phosphate buffer (1:1) instead of the sample. A negative control sample was run with MeOH/phosphate buffer (1:1) instead

Test [2] has as its system HepG2 cells. The experiment in a line: cells. In kind it is cell-based, human. The following applies: for IC50: MTT, 24 h incubation, HepG2 cells, read-out: HepG2 IC50; for HepG2 TI (IC50 WI-38 / IC50 HepG2): therapeutic index, ratio of WI-38 IC50 to HepG2 IC50. The procedure:
(§1) Cells were obtained from the ATCC Company (VACSERA), Cairo, Egypt. MTT assay were performed according to the literature method. More details are in the Supporting Information.
(§2) Recently, OSe compounds gained much attention as possible drug candidates due to their various pharmacological properties. Our group has reported several OSe candidates with potential anticancer, antimicrobial, and antioxidant activities. Therefore, the anticancer attributes of the newly prepared OSe compounds were estimated using the MTT assay against MCF-7 and HepG2 and compared with their respective cytotoxicity in WI-38 primary cells. The anthracycline drug doxorubicin was used as the standard. The minimal inhibition concentration required to kill 50% of the cells (IC50) was calculated from dose-response curves presented in Table 1. Moreover, the therapeutic index (TI) was also calculated (according to Equation (1)), which is considered a measure of the selectivity and safety of the synthesized compounds. (1) TI=IC50 for the normal WI38 cells/IC50 for the cancer cells […]
(§3) 1.1. The biological assays
(§4) 1.1.1. The anticancer activity
The breast adenocarcinoma (MCF-7), Hepatocellular carcinoma (HEPG-2), and nor-mal fibroblast (WI-38) cells were obtained from ATCC via Holding company for biological products and vaccines (VACSERA), Cairo, Egypt. The reagents RPMI-1640 medium, MTT, DMSO, and fetal bovine serum was obtained from Sigma Aldrich. Dulbecco’s modified Eagle’s medium was used as the culture medium for the cells, and the cytotoxicity was evaluated using the reported MTT assay. Doxorubicin was used as the positive reference, and the IC50 values were obtained from the corresponding dose-response curve.
This colorimetric assay is based on converting the yellow tetrazolium bromide (MTT) to a purple formazan derivative by mitochondrial succinate dehydrogenase in viable cells.
(§5) Cell lines were cultured in RPMI-1640 medium with 10% fetal bovine serum. Antibiotics added were 100 units/ml penicillin and 100µg/ml streptomycin at 37 C in a 5% Co2 incu-bator. The cell lines were seeded in a 96-well plate at a density of 1.0x10^4 cells/well. at 37 C for 48 h under 5% Co2. After incubation, the cells were treated with different concentra-tions of compounds and incubated for 24 h. After 24 h of drug treatment, 20 µl of MTT solution at 5mg/ml was added and incubated for 4 h. Finally, dimethyl sulfoxide (DMSO) in the volume of 100 µl is added to each well to dissolve the purple formazan formed. The colorimetric assay is measured and recorded at an absorbance of 570 nm using a plate reader (EXL 800, USA). The percentage of the relative cell viability was calculated as (A570 of treated samples/A570 of the untreated sample) X 100. […]
Inhibition%= (Ablank-Asample)/(Ablank)*100. (1)

Test [3] deals with WI-38 cells. The experiment in a line: cells. It is filed as cell-based, human. The following applies: MTT, 24 h incubation, normal WI-38 cells, read-out: WI38 IC50. The procedure:
as §1
as §2, with “Our group has reported several OSe candidates with potential anticancer, antimicrobial, and antioxidant activities.” left out, “The minimal inhibition concentration required to kill 50% of the cells (IC50) was calculated from dose-response curves presented in Table 1.” left out
as §3, §4
The breast adenocarcinoma (MCF-7), Hepatocellular carcinoma (HEPG-2), and nor-mal fibroblast (WI-38) cells were obtained from ATCC via Holding company for biological products and vaccines (VACSERA), Cairo, Egypt.
DMSO, and fetal bovine serum was obtained from Sigma Aldrich. Dulbecco’s modified Eagle’s medium was used as the culture medium for the cells, and the cytotoxicity was evaluated using the reported MTT assay. Doxorubicin was used as the positive reference, and the IC50 values were obtained from the corresponding dose-response curve.
This colorimetric assay is based on converting the yellow tetrazolium bromide (MTT) to a purple formazan derivative by mitochondrial succinate dehydrogenase in viable cells. […]
as §5, with “added” for “Cell lines were cultured in RPMI-1640 medium with 10% fetal bovine serum. Antibiotics added”, “plate” for “plate reader (EXL 800, USA). The percentage of the relative cell viability was calculated as (A570 of treated samples/A570 of the untreated sample) X 100.”
The percentage of the relative cell viability was calculated as (A570 of treated samples/A570 of the untreated sample) X 100. […]

The values below come from PMC9312238, “Novel Organoselenium Redox Modulators with Potential Anticancer, Antimicrobial, and Antioxidant Activities” (Antioxidants, 2022).

Read-outs that look alike come from different tables or passages of the source. Some results are limits rather than exact numbers.

Take “2-((4-(2-(3-hydroxynaphthalen-1(4H)-ylidene)hydrazinyl)phenyl)selanyl)-N-phenylacetamide [Compound 9]”: the “radical scavenging activity, ABTS assay” value in test [1] is recorded as 88%. Also, the 50% inhibitory concentration (IC50) is 28.87 ± 0.2 µM in test [1], 7.48 ± 0.6 µM in test [2] and 39.3 ± 2.5 µM in test [3]. Moreover, the “HepG2 TI (IC50 WI-38 / IC50 HepG2)” value in test [2] is recorded as 5.3.
Take `Nc1ccc([Se]CC(=O)Nc2ccccc2)cc1` [Compound 4, 2-((4-aminophenyl)selanyl)-N-phenylacetamide]: the “radical scavenging activity, ABTS assay” value in test [1] is listed as 78%. The IC50 in test [2] (Homo sapiens) turned out to be 18.3 ± 1.3 µM; in test [3] (Homo sapiens), 52.3 ± 3 µM. Further, in test [2], the “HepG2 TI (IC50 WI-38 / IC50 HepG2)” value came out at 2.9.
As to `CCOc1ccc(NC(=O)C[Se]c2ccc(N)cc2)cc1` [Compound 5, 2-((4-aminophenyl)selanyl)-N-(4-ethoxyphenyl)acetamide], the “radical scavenging activity, ABTS assay” value in test [1] is on record as 53%. Besides, the IC50 in test [2] (Homo sapiens) and in test [3] (Homo sapiens) was > 100 µM in each case.
As to `Nc1ccc([Se]CC(=O)N[C@@H](Cc2c[nH]c3ccccc23)C(=O)O)cc1` [Compound 6, (2-((4-aminophenyl)selanyl)acetyl)tryptophan], the “radical scavenging activity, ABTS assay” value in test [1] was 85%. Moreover, the values for the IC50 in test [1], in test [2] (Homo sapiens) and in test [3] (Homo sapiens) were 31.92 ± 0.29 µM, 8.86 ± 0.7 µM and 28.4 ± 2.2 µM, respectively. In test [2], the “HepG2 TI (IC50 WI-38 / IC50 HepG2)” value was determined as 3.2.
As to `O=C(O)CCC(=O)Nc1ccc([Se]CC(=O)Nc2ccccc2)cc1` [Compound 11, 4-oxo-4-((4-((2-oxo-2-(phenylamino)ethyl)selanyl)phenyl)amino)butanoic acid], the “radical scavenging activity, ABTS assay” value in test [1] is 74%. Also, the IC50 in test [2] (Homo sapiens) came out at 26.7 ± 1.9 µM; in test [3] (Homo sapiens), 67.3 ± 3.9 µM. The “HepG2 TI (IC50 WI-38 / IC50 HepG2)” value in test [2] was 2.5.
On the same counts, the results for `O=C(C[Se]c1ccc(N2C(=O)CCC2=O)cc1)Nc1ccccc1` [Compound 14, 2-((4-(2,5-dioxopyrrolidin-1-yl)phenyl)selanyl)-N-phenylacetamide] are 81%, 12.6 ± 1 µM, 62 ± 3.6 µM and 5.
For `C[Se]c1ccc(NC(=O)C=CC(=O)O)cc1` [Compound 15, 4-((4-(methylselanyl)phenyl)amino)-4-oxobut-2-enoic acid] the same measures were 84%, 9.94 ± 0.8 µM, 19.8 ± 1.5 µM and 2.
With `C[Se]c1ccc(NC(=O)CCC(=O)O)cc1` [Compound 16, 4-((4-(methylselanyl)phenyl)amino)-4-oxobutanoic acid], in test [1], the “radical scavenging activity, ABTS assay” value was 71%. Moreover, the figures for the IC50 in test [2] (Homo sapiens) and in test [3] (Homo sapiens) were 32.6 ± 2.3 µM and 22.5 ± 1.9 µM, respectively. For the same compound, the “HepG2 TI (IC50 WI-38 / IC50 HepG2)” value in test [2] worked out at 0.7.
